Laboratory results reported in paper PMC2959128 (Journal of the American Chemical Society, 2010).

Biological target: T1, phosphopantetheinyl transferase Sfp (Bacillus subtilis, UniProt P39135)
T1 sequence (P39135 1-224): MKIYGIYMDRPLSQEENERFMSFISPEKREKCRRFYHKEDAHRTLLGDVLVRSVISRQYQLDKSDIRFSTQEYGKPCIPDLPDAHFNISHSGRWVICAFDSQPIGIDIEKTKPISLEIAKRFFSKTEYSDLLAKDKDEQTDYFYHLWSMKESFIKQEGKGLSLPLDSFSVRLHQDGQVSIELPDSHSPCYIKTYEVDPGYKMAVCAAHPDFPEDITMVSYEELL
Assay: acyl-phosphopantetheinyl transfer to apo-ACP
Type: biochemical
Conditions: DEBS apo-ACP6 as acceptor

SMILES	acyl-phosphopantetheinyl transfer to apo-ACP; LC-ESI(+)-MS
CC[C@@H](O)[C@@H](C)C(=O)SCCNC(=O)CCNC(=O)[C@H](O)C(C)(C)COP(=O)(O)OP(=O)(O)OC[C@H]1O[C@@H](n2cnc3c(N)ncnc32)[C@H](O)[C@@H]1OP(=O)(O)O [2a-SCoA]	from DEBS apo-ACP6 using the phosphopantetheinyl transferase Sfp
CC/C=C(\C)C(=O)SCCNC(=O)CCNC(=O)[C@H](O)C(C)(C)COP(=O)(O)OP(=O)(O)OC[C@H]1O[C@@H](n2cnc3c(N)ncnc32)[C@H](O)[C@@H]1OP(=O)(O)O [3-SCoA]	from DEBS apo-ACP6 using the phosphopantetheinyl transferase Sfp
